# Reference: patent US20230380460A1 (priority 2020, published 2023)
# Columns and labels:
# Assay type in all cases: cell-based
# [1] = tested on: total flora (total plate count); assay: Spoilage analysis of cooked emulsified sausage: total plate count; conditions: cooked emulsified sausage during storage
# Procedure: (§1) A part was inoculated on surface with Listeria monocytogenes for the challenge test and the other part was kept safe for shelf life microbiological study as well as organoleptic and physical characterization. Cooked emulsified sausages were then stored in vacuum packaging.
# (§2) Microbiological analysis was performed according to current standard EC regulation 2073/2005, at d0 after packaging, several days during the storage (from D4 to D7 or D14 according to the studies).
# (§3) For cooked emulsified sausage, 14 days of shelf-life with 7 days of storage at 4° C. and 7 days at 8° C., to simulate a break in the cold chain (standardized method NF V01-003).
# (§4) Group of microorganisms counts performed are listed below: • Total plate count (NF EN ISO 4833-1), • Lactic acid bacteria (NF ISO 15214) both mesophilic and psychotrophic • Enterobacteriaceace (ISO 21528-2), • Pseudomonas sp. (EN ISO 13720), • Brochothrix thermosphacta • Anaerobic enumeration of sulfito-reducing bacteria (NF V08-061), • Challenge test Listeria monocytogenes (NF-EN ISO 11290-2). • Challenge test Salmonella (NF-EN ISO 6579-1).
# [2] = tested on: lactic flora; assay: Spoilage analysis of cooked emulsified sausage: lactic flora; conditions: cooked emulsified sausage during storage
# Procedure: as §1, §2, §3, §4
# [3] = tested on: Listeria monocytogenes; conditions: fresh ground sausage, d8
substance,measurement,setting,value
lactate,Growth of total flora,[1],normal growth
same,Growth of lactic flora,[2],normal growth
same,Δ log cfu/g of Listeria growth versus untreated control,[3],−0.9 log cfu/g
